Measured values reported in PMC2206373, “Identification of an altered peptide ligand based on the endogenously presented, rheumatoid arthritis-associated, human cartilage glycoprotein-39(263–275) epitope: an MHC anchor variant peptide for immune modulation” (Arthritis Research & Therapy, 2007).
Where two headings read alike, the source gives them in different places. Non-standard residues stand in square brackets, D forms with d. Residues, ends and D or L forms follow the SMILES beside them. No end group written: not given here. Dip = N[C@H](C(=O)O)C(c1ccccc1)c1ccccc1; Tic = O=C(O)[C@@H]1Cc2ccccc2CN1

Experiments:
[1] = tested on: popliteal lymph node cells from HC gp-39(263–275)-immunized huCD4, HLA-DR4 transgenic mice; experiment: Antigen-specific proliferation of popliteal lymph node cells from WT peptide-immunized mice; assay type: cell-based, mouse; conditions: for Prol (SI): 96 h, tritiated thymidine, background 407 cpm, SI > 2 positive, SD not above 30%; for Ex vivo recall proliferative response in words: Figure 4a, WT peptide-immunized HLA-DR4trg mice
Experimental: (§1) Mice, obtained from L Fugger (Oxford, UK), were immunized in the hind footpads with 2 × 50 μg of purified recombinant HC gp-39, with 2 × 100 μg of the WT peptide or with 2 × 100 μg of the APL (F265(Dip); compound 28; Figure 1) mixed in IFA. Seven days later, popliteal lymph node cell suspensions (1 to 2 × 10^5 cells/well) were stimulated in vitro with HC gp-39 (50, 10 or 2 μg/ml), HC gp-39(263–275) or APL (10, 2 and 0.4 μg/ml). At 96 h, 50 μl of culture medium was harvested for analysis of antigen-specific cytokine production using Luminex technology (mouse cytokine 18 Plex Panel, catalogue no. 171-F11181, Biorad, Bio-Rad Laboratories, Hercules, CA, USA). In addition, cultures were labelled with tritiated thymidine (for 18 h) and antigen-specific proliferation was determined. We state that all animal experimentation received ethics approval and animals were treated according to the recognized guidelines.

HLA-DR4(B1*0401) = HLA-DR4(B1*0401) (Homo sapiens, UniProt P01903+P01911, A100K/A169T/F76Y/I96L/K127E/L162R/M171V/N62H/P40V/Q125Y/R42H/S133A/S149N/S66Y/V115G/V209L/W38E); experiment: HLA-DR4 competition peptide binding assay; conditions: competition with biotinylated HA307-319 (Y309F) 50 nM, purified HLA-DR4 30 nM, pH 5, 48 h, room temperature
Experimental: HLA-DR bound marker peptide was separated from free marker peptide and the amount of bound marker peptide was detected and quantified by enhanced chemoluminescense. Inhibition curves were generated and the IC50 was determined. The concentration of competitor peptide inducing 50% inhibition of marker peptide binding was determined, and expressed as the 50% inhibitory concentration (IC50 in μM).

T cell hybridoma 5G11 = experiment: T hybridoma 5G11 IL-2 response; assay type: cell-based, mouse; conditions: for Hybridoma response (SI) 5G11: IL-2 by ELISA after 48 h, peptide 10 μg/ml, SI > 2 positive; for Hybridoma response (SI) 5G11 / T hybridoma (SI) 5G11: DRB1*0401 BLCL as APC; for T hybridoma (SI) 5G11: Figure 1, IL-2 production, duplicate or triplicate, background 29,203 counts, ±30% of WT response = super/partial agonist
Experimental: (§2) The T cell hybridomas, provided by G Sonderstrup (Stanford, CA, USA), were generated as described. In brief, human CD4, HLA-DRA*101/HLA-DRB*0401 triple transgenic (HLA-DR4trg) mice (devoid of I-Aβ) were immunized in the footpad with 50 μg of purified HC gp-39 mixed in incomplete Freund's adjuvant (IFA). Draining lymph nodes were isolated and T-cell hybridomas were generated by polyethylene glycol fusion of primed and in vitro antigen-restimulated lymph node cells with the AKR BW5147 fusion partner. Following fusion, growth-positive hybridoma wells were screened for reactivity to HC gp-39 and a set of 55 peptides (16 amino acids in length) covering the entire HC gp-39 sequence. HLA-DR4(B1*0401)-restricted hybridomas responsive to both the HC gp-39 protein and the immunodominant epitope 263–275 of HC gp-39 (for example, 5G11, 8B12, 14G11 and 20H5) were cloned, subcloned, characterised and selected for further study.
(§3) HC gp-39-specific IL-2 production by T hybridomas was measured in wells of round-bottomed microtiter plates. Hybridoma cells (2 to 5 × 10^4) and irradiated APC (0.5 to 1 × 10^5; 12,000 to 16,000 RAD) from the B lymphoblastoid cell line (BLCL) carrying the DRB1*0401 specificity were incubated in 150 μl volumes. Antigen was added in 50 μl volumes to duplicate wells. After 48 h, 100 μl of the culture supernatant was assayed for IL-2 production using a sandwich ELISA with Pharmingen antibodies specific for mouse IL-2. The antigen sensitivity of the hybridomas to both peptide and protein was determined (Figure 2). […] In later assays, an excess of peptide or APL (10 μg/ml), inducing maximal responses in all hybridomas, was tested.

T cell hybridoma 20H5 = experiment: T hybridoma 20H5 IL-2 response; assay type: cell-based, mouse; conditions: for Hybridoma response (SI) 20H5: IL-2 by ELISA after 48 h, peptide 10 μg/ml, DRB1*0401 BLCL as APC, SI > 2 positive
Experimental: as §2, §3

T cell hybridoma 14G11 = experiment: T hybridoma 14G11 IL-2 response; assay type: cell-based, mouse; conditions: for Hybridoma response (SI) 14G11: IL-2 by ELISA after 48 h, peptide 10 μg/ml, SI > 2 positive; for Hybridoma response (SI) 14G11 / T hybridoma (SI) 14G11: DRB1*0401 BLCL as APC; for T hybridoma (SI) 14G11: Figure 1, IL-2 production, duplicate or triplicate, background 7,152 counts, ±30% of WT response = super/partial agonist; for Hybridoma 14G11 activation (IL-2 production) in words: Figure 1 experiment, compared with WT peptide
Experimental: as §2, §3

[2] = tested on: popliteal lymph node cells from HC gp-39(263–275)-immunized huCD4, HLA-DR4 transgenic mice; experiment: Antigen-specific cytokine production of popliteal lymph node cells from WT peptide-immunized mice; assay type: cell-based, mouse; conditions: for IFNγ concentration / MIP1α concentration / RANTES concentration: 96 h supernatant, Luminex; for Ex vivo recall IFNγ production in words / Ex vivo recall Mip1α production in words / Ex vivo recall RANTES production in words: Figure 4a, WT peptide-immunized HLA-DR4trg mice
Experimental: as §1

T cell hybridoma 8B12 = experiment: T hybridoma 8B12 IL-2 response; assay type: cell-based, mouse; conditions: for Hybridoma response (SI) 8B12: IL-2 by ELISA after 48 h, peptide 10 μg/ml, SI > 2 positive; for Hybridoma response (SI) 8B12 / T hybridoma (SI) 8B12: DRB1*0401 BLCL as APC; for T hybridoma (SI) 8B12: Figure 1, IL-2 production, duplicate or triplicate, background 16,288 counts, ±30% of WT response = super/partial agonist; for Hybridoma 8B12 activation (IL-2 production) in words: Figure 1 experiment, compared with WT peptide
Experimental: as §2, §3

[3] = tested on: popliteal lymph node cells from F265(Dip)-immunized HLA-DR4trg mice; experiment: Antigen-specific cytokine production of popliteal lymph node cells from F265(Dip)-immunized mice; assay type: cell-based, mouse; conditions: Figure 4b
Experimental: as §1

[4] = tested on: popliteal lymph node cells from F265(Dip)-immunized HLA-DR4trg mice; experiment: Antigen-specific proliferation of popliteal lymph node cells from F265(Dip)-immunized mice; assay type: cell-based, mouse; conditions: Figure 4b
Experimental: as §1

[5] = Figure 1, read-out: DRB1*0401 binding IC50
[6] = Table 1, geometric mean of two experiments, read-out: HLA-DR binding IC50
[7] = Table 1, background 8,147 counts, representative of at least three experiments
[8] = Table 1, background 35,749 counts, representative of at least three experiments
[9] = Table 1, background 8,598 counts, representative of at least three experiments
[10] = Table 1, background 7,470 counts, representative of at least three experiments

IC50 (HLA-DR4(B1*0401); [5]) [nM]	IC50 (HLA-DR4(B1*0401); [6]) [nM]	Compound	Ex vivo recall proliferative response in words [1]	T hybridoma (SI) 5G11 (T cell hybridoma 5G11) [SI]	In vitro recall IFNγ production in words [3]	In vitro recall Mip1α production in words [3]	In vitro recall RANTES production in words [3]	T hybridoma (SI) 14G11 (T cell hybridoma 14G11) [SI]	Hybridoma 14G11 activation (IL-2 production) in words (T cell hybridoma 14G11)	In vitro recall proliferative response in words [4]	Ex vivo recall IFNγ production in words [2]	Ex vivo recall Mip1α production in words [2]	Ex vivo recall RANTES production in words [2]	T hybridoma (SI) 8B12 (T cell hybridoma 8B12) [SI]	Hybridoma 8B12 activation (IL-2 production) in words (T cell hybridoma 8B12)	Hybridoma response (SI) 5G11 (T cell hybridoma 5G11; [7]) [SI]	Hybridoma response (SI) 20H5 (T cell hybridoma 20H5; [8]) [SI]	Hybridoma response (SI) 14G11 (T cell hybridoma 14G11; [9]) [SI]	Hybridoma response (SI) 8B12 (T cell hybridoma 8B12; [10]) [SI]	also measured
–	–	RSATLASSETGVG [Compound 12]	–	–	–	–	–	–	–	–	–	–	–	–	–	–	–	–	–	Polyclonal response (proliferation and cytokine production) in words ([1]; Table 3, lymph node cells of WT peptide-immunized HLA-DR4trg mice): did not elicit a significant response; Prol (SI) ([1]; peptide 2 μg/ml): 1 SI; Prol (SI) ([1]; peptide 10 μg/ml): 3 SI; IC50 (HLA-DR4(B1*0401); Table 2, read-out: HLA-DR binding IC50): > 35000 nM; Recognition by hybridoma 5G11 in words (T cell hybridoma 5G11; Table 2): not recognized; Hybridoma response (SI) 5G11 (T cell hybridoma 5G11; Table 2, background 17,238 counts, SD not above 15%): 2 SI; Reactivity of hybridoma 20H5 in words (T cell hybridoma 20H5; Table 2): only slightly affected; Hybridoma response (SI) 20H5 (T cell hybridoma 20H5; Table 2, background 290,666 counts, SD not above 15%): 4 SI; Recognition by hybridoma 14G11 in words (T cell hybridoma 14G11; Table 2): not recognized; Hybridoma response (SI) 14G11 (T cell hybridoma 14G11; Table 2, background 10,131 counts, SD not above 15%): 2 SI; IFNγ concentration ([2]; peptide 2 μg/ml): <5 pg/mL; MIP1α concentration ([2]; peptide 2 μg/ml): <24 pg/mL; RANTES concentration ([2]; peptide 2 μg/ml): <6 pg/mL; IFNγ concentration ([2]; peptide 10 μg/ml): <5 pg/mL; MIP1α concentration ([2]; peptide 10 μg/ml): 27 pg/mL; RANTES concentration ([2]; peptide 10 μg/ml): 9 pg/mL; Reactivity of hybridoma 8B12 in words (T cell hybridoma 8B12; Table 2): affected to a lesser extent; Hybridoma response (SI) 8B12 (T cell hybridoma 8B12; Table 2, background 8,773 counts, SD not above 15%): 6 SI
10	–	CC(C)C[C@H](NC(=O)[C@@H](NC(=O)[C@@H](NC(=O)[C@H](CO)NC(=O)[C@@H](N)CCCNC(=N)N)C(c1ccccc1)c1ccccc1)[C@@H](C)O)C(=O)N[C@@H](C)C(=O)N[C@@H](CO)C(=O)N[C@@H](CO)C(=O)N[C@@H](CCC(=O)O)C(=O)N[C@H](C(=O)NCC(=O)N[C@H](C(=O)NCC(=O)O)C(C)C)[C@@H](C)O [Compound 28] (H-RS[Dip]TLASSETGVG-OH)	comparable proliferative responses	29	barely detectable	barely detectable	barely detectable	6	partial activation	good proliferative activity	lesser	unaltered	unaltered	5	partial activation	–	–	–	–	–
–	> 100000	TLASSETGVG [Compound 7]	–	–	–	–	–	–	–	–	–	–	–	–	–	1	5	1	1	–
–	> 100000	LASSETGVG [Compound 8]	–	–	–	–	–	–	–	–	–	–	–	–	–	1	1	1	1	–
–	–	human cartilage glycoprotein-39 [HC gp-39 protein]	–	–	failed to induce significant levels	failed to induce significant levels	failed to induce significant levels	–	–	somewhat less	–	–	–	–	–	–	–	–	–	–
21	–	CC(C)C[C@H](NC(=O)[C@@H](NC(=O)[C@@H]1Cc2ccccc2CN1C(=O)[C@H](CO)NC(=O)[C@@H](N)CCCNC(=N)N)[C@@H](C)O)C(=O)N[C@@H](C)C(=O)N[C@@H](CO)C(=O)N[C@@H](CO)C(=O)N[C@@H](CCC(=O)O)C(=O)N[C@H](C(=O)NCC(=O)N[C@H](C(=O)NCC(=O)O)C(C)C)[C@@H](C)O [Compound 27] (H-RS[Tic]TLASSETGVG-OH)	comparable proliferative responses	12	failed to induce significant levels	failed to induce significant levels	failed to induce significant levels	21	partial activation	–	increased production	increased production	increased production	8	partial activation	–	–	–	–	Hybridoma 5G11 activation (IL-2 production) in words (T cell hybridoma 5G11; Figure 1 experiment, compared with WT peptide): partial activation
